Experimental data published in US20100184213A1, “APOCRINE CELL LINE” (priority 2007, published 2010).

How the values were obtained:
[1] = tested on: proliferating apocrine cultures (ASG5); experiment: Short circuit current (Isc) in Ussing chamber, proliferating apocrine cultures on Transwells; type: cell-based, human; details: for Peak agonist Isc response, Control / Peak agonist Isc response, Chloride-free: proliferating (ASG5), Carbachol 20 μM; for Peak agonist Isc response, Control / Peak agonist Isc response after amiloride pre-treatment, Control: chloride-containing buffer; for Peak agonist Isc response, Control / Peak agonist Isc response, Chloride-free / Peak agonist Isc response after amiloride pre-treatment, Control / Peak agonist Isc response after amiloride pre-treatment, Chloride-free: Histamine 200 μM, ATP 100 μM; for Peak agonist Isc response after amiloride pre-treatment, Control / Peak agonist Isc response after amiloride pre-treatment, Chloride-free / ΔIsc (change of resting short circuit current): proliferating apocrine; for Peak agonist Isc response after amiloride pre-treatment, Control / Peak agonist Isc response after amiloride pre-treatment, Chloride-free: Carbachol 200 μM, Isoprenaline ≧1 μM, LBK 170 nM; for ΔIsc (change of resting short circuit current): furosemide 1 mM basolateral
Procedure: (§1) After 13-18 days, confluent ASG5 cultures were passaged onto Transwell collagen-coated permeable supports (0.33 cm^2 area, Costar, cat. no. 3495, High Wycombe, Bucks, UK). This involved incubation in 2% EDTA for 20 minutes, followed by trypsin (0.5%)-EDTA (0.2%) for approximately five minutes. 3×10^5 cells were transferred onto each Transwell supplemented with WEM. The Transwell supports were suspended in 24-well plates in 0.6 ml of the same medium. For primary cultures, only first passage cells were used in experiments. The medium bathing cultures on Transwells was changed every two days.
(§2) Transepithelial resistance (TER) across epithelia on Transwells was monitored using ‘chopstick’ electrodes (WPI, Alresford, Hants, UK) connected to an ohmmeter. The TER was estimated by subtracting the measurement for a moistened filter blank. At peak TER, the Transwell supports were mounted in an Ussing Chamber. Epithelia were bathed in a modified Krebs buffer, oxygenated and maintained at 37° C., pH 7.4, with 95% O2/5% CO2. The buffer consisted of (mM): NaCl, 117; KCl, 4.7; CaCl2, 1.5; MgSO4, 1.2; NaHCO3, 25; and glucose, 11.1. Voltage and current electrodes (calomel and silver/silver chloride respectively, ABB Kent Taylor, Stonehouse, Glos, UK), connected to a voltage/current clamp were extended into the bath via bridges containing agar dissolved in 3 M potassium chloride.
(§3) Voltage electrodes were balanced in the absence of a Transwell and fluid resistance between the voltage electrodes was compensated for by the injection of an arbitrary DC current. After mounting a Transwell the epithelium was short-circuited, the current allowed to stabilise, typically for 15 minutes. Given the rarity of apocrine material, drugs were typically added in succession as disclosed by Brayden et al (1988) J. Physiol, 405: 657-675, Pedersen et al (1992) Exp. Physiol, 77; 863-871, and Shen et al, (1994) Am. J. Physiol, 266: L493-501 and changes in short circuit current (I^sc) recorded. The duration of experiments was typically 15-60 min. TER was estimated using Ohm's Law, routinely by clamping the voltage at ±10 mV and measuring the current required to achieve this. Unless otherwise stated all drugs listed in the legend were added to the basolateral side, except for amiloride that was added to the apical side. Amiloride is an inhibitor of the epithelial Na^+ channel (ENaC) and the Na^+/H^+ exchanger.
(§4) Chloride substitution experiments were carried out in Krebs buffer in which sodium gluconate was substituted for NaCl, potassium gluconate for KCl and CaSO4 for CaCl2. Glucose-free experiments were carried out with 11.1 mM mannitol as a replacement to maintain osmolality. Experiments in which barium was used as an inhibitor of potassium channels were carried out in the absence of sulphate ions, such that MgCl2 replaced MgSO4.

[2] = tested on: primary apocrine cultures; experiment: Short circuit current (Isc) in Ussing chamber, primary apocrine cultures on Transwells; type: cell-based, human; details: for Peak agonist Isc response, Control / Peak agonist Isc response after amiloride pre-treatment, Control / Peak agonist Isc response, Chloride-free / Peak agonist Isc response after amiloride pre-treatment, Chloride-free / ΔIsc (change of resting short circuit current): primary apocrine; for Peak agonist Isc response, Control / Peak agonist Isc response after amiloride pre-treatment, Control: chloride-containing buffer; for Peak agonist Isc response, Control / Peak agonist Isc response, Chloride-free: Carbachol 20 μM; for Peak agonist Isc response, Control / Peak agonist Isc response after amiloride pre-treatment, Control / Peak agonist Isc response, Chloride-free / Peak agonist Isc response after amiloride pre-treatment, Chloride-free: Histamine 200 μM, ATP 100 μM; for Peak agonist Isc response after amiloride pre-treatment, Control / Peak agonist Isc response after amiloride pre-treatment, Chloride-free: Carbachol 200 μM, Isoprenaline ≧1 μM, LBK 170 nM; for ΔIsc (change of resting short circuit current): amiloride 10 μM apical, furosemide 1 mM basolateral
Procedure: as §1, §2, §3, §4

[3] = tested on: eccrine sweat gland cells; experiment: Short circuit current (Isc) in Ussing chamber, primary eccrine sweat gland cells; type: cell-based; details: amiloride 10 μM apical
[4] = tested on: primary cultures of apocrine secretory coils; experiment: TPA treatment of primary cultures of apocrine secretory coils in MEGM; type: cell-based, human; details: TPA 250 nM in MEGM; 3-4 days after addition
Procedure: A proliferating apocrine cell line was derived from primary cultures of apocrine secretory coils. After 7 days culture in MEGM, the potent phorbol ester, TPA (phorbol-12-myristate-13 acetate; ex Calbiochem, Nottingham, UK) was included in the medium at a concentration of 250 nM. […] Commonly, the ester comprises at least aliphatic substituent particularly suitably at the 12 and/or 13 positions, such as a long chain alkyl (C7 to C24) and optionally also a short chain alkyl (C2 to C6).
However, the upper differentiated layers were removed by repeated washing to leave a proliferative monolayer of cells still attached to the flask. Cells of the proliferative layer were passaged into 96 well plates to generate clonal cell lines. Cells were maintained, passaged and continued to grow in MEGM containing TPA for approximately 2 months. After this period cells were cultured in MEGM alone and monitored for continued proliferation. Initially, many subclones continued to grow, but by the end of the next 10 passages, the majority had begun to senesce. One culture, in particular, ASG5, continued to grow and has now been maintained in culture, proliferating over more than 40 passages with no signs of a reduction in growth rate. […] This culture continues to proliferate in the absence of TPA, can survive cryopreservation and is considered to be stable.

Compound	Peak agonist Isc response, Control [1] [μA cm^−2]	Peak agonist Isc response, Chloride-free ([1]; chloride-free buffer) [μA cm^−2]	Peak agonist Isc response after amiloride pre-treatment, Control [1] [μA cm^−2]	Peak agonist Isc response after amiloride pre-treatment, Chloride-free ([1]; chloride-free buffer) [μA cm^−2]	Peak agonist Isc response, Control [2] [μA cm^−2]	Peak agonist Isc response after amiloride pre-treatment, Control [2] [μA cm^−2]	Peak agonist Isc response, Chloride-free ([2]; chloride-free buffer) [μA cm^−2]	Peak agonist Isc response after amiloride pre-treatment, Chloride-free ([2]; chloride-free buffer) [μA cm^−2]	other results
Nc1ncnc2c1ncn2[C@@H]1O[C@H](COP(=O)(O)OP(=O)(O)OP(=O)(O)O)[C@@H](O)[C@H]1O [ATP, Adenosine triphosphate]	6.3 ± 1.8	4.0 ± 0.5	1.8 ± 0.3	0.8 ± 0.2	7.4 ± 1.8	4.9 ± 0.7	2.9 ± 0.9	4.3 ± 2.4	–
N=C(N)NC(=O)c1nc(Cl)c(N)nc1N [Amiloride]	–	–	–	–	–	–	–	–	IC50 ([1]; Homo sapiens, apical amiloride, read-out: IC50 for amiloride (dose response curves, resting Isc)): 2 to 4 µM; carbachol stimulation of Isc after amiloride pre-treatment (FIG. 4A versus FIG. 3) ([1]; amiloride 10 μM apical, CCh 20 μM): reduced; effect of amiloride pre-treatment on peak Isc responses to CCh, His and ATP (FIG. 2) ([1]; amiloride 10 μM apical, CCh 20 μM, His 200 μM, ATP 100 μM basolateral): significantly reduced; reduction of basal Isc under chloride-free conditions ([1]; amiloride 10 μM, chloride-free buffer, proliferating cultures): 2.5 μA cm^−2; reduction of resting Isc ([1]; apically applied amiloride 10 μM, n=20, P<0.001): 4.5±1.0 μA cm^−2; ΔIsc (change of resting short circuit current) ([1]; amiloride 10 μM apical): −4.2 ± 1.0 μA cm^−2; reduction of basal Isc under chloride-free conditions ([2]; amiloride 10 μM, chloride-free buffer, primary cultures): 3.6 μA cm^−2; ΔIsc (change of resting short circuit current) [2]: −6.0 ± 0.9 μA cm^−2; ΔIsc (change of resting short circuit current) [3]: −7.1 ± 0.7 μA cm^−2
C[N+](C)(C)CCOC(N)=O [Carbachol]	4.0 ± 0.7	3.0 ± 0.8	2.4 ± 0.6	1.3 ± 0.3	3.9 ± 0.7	6.3 ± 1.4	0.7 ± 0.6	1.7 ± 1.2	–
NS(=O)(=O)c1cc(C(=O)O)c(NCc2ccco2)cc1Cl [Furosemide]	–	–	–	–	–	–	–	–	Inhibition by furosemide of agonist response, ΔIsc ([1]; 90 µM): −1.2 ± 0.3 μA cm^−2; Inhibition by furosemide of agonist response, ΔIsc ([1]; furosemide 90 μM, agonist ATP 100 μM, proliferating): −1.2 ± 0.3 μA cm^−2; Inhibition by furosemide of agonist response, ΔIsc ([1]; furosemide 90 μM, agonist Carbachol ≧20 μM, proliferating): −1.1 ± 0.4 μA cm^−2; Inhibition by furosemide of agonist response, ΔIsc ([1]; furosemide 90 μM, agonist Histamine 200 μM, proliferating): −1.0 ± 0.4 μA cm^−2; magnitude of Isc response to carbachol after furosemide pre-treatment (FIG. 4B versus FIG. 3) ([1]; furosemide 1 mM pre-treatment, CCh 20 μM): reduces the magnitude of response; ΔIsc (change of resting short circuit current) ([1]; amiloride 10 μM apical): −0.8 ± 0.3 μA cm^−2; agonist Isc responses on addition of furosemide after agonist stimulation ([1]; transformed apocrine cultures): rapid reduction in responses; Inhibition by furosemide of agonist response, ΔIsc ([2]; 90 µM): 0.8 ± 0.2 μA cm^−2; Inhibition by furosemide of agonist response, ΔIsc ([2]; furosemide 90 μM, agonist ATP 100 μM, primary): −2.6 ± 0.5 μA cm^−2; Inhibition by furosemide of agonist response, ΔIsc ([2]; furosemide 90 μM, agonist Carbachol ≧20 μM, primary): −2.0 ± 0.5 μA cm^−2; Inhibition by furosemide of agonist response, ΔIsc ([2]; furosemide 90 μM, agonist Histamine 200 μM, primary): −1.3 ± 0.2 μA cm^−2; agonist Isc responses on addition of furosemide after agonist stimulation ([2]; primary apocrine cultures): rapid reduction in responses; ΔIsc (change of resting short circuit current) [2]: −0.5 ± 0.2 μA cm^−2
NCCc1c[nH]cn1 [Histamine]	4.8 ± 1.3	3.3 ± 0.8	1.9 ± 0.4	1.0 ± 0.2	6.4 ± 1.3	4.2 ± 0.5	1.7 ± 0.5	2.4 ± 1.4	–
CC(C)NCC(O)c1ccc(O)c(O)c1 (stereo not shown) [Isoprenaline]	–	–	1.8 ± 0.4	0.8 ± 0.2	–	1.8 ± 0.4	–	0.7 ± 0.3	–
CCCCCCCCCCCCCC(=O)O[C@@H]1[C@@H](C)[C@@]2(O)[C@@H](C=C(CO)C[C@]3(O)C(=O)C(C)=C[C@@H]23)[C@@H]2C(C)(C)[C@]12OC(C)=O [TPA, phorbol-12-myristate-13 acetate]	–	–	–	–	–	–	–	–	effect on culture morphology (multilayering) [4]: induced premature multilayering
L-bradykinin (RPPGFSPFR; Bradykinin; UniProt P01042 381-389, looked up) [LBK, agonist added basolaterally]	–	–	1.6 ± 0.3	0.9 ± 0.3	–	2.0 ± 0.5	–	0.6 ± 0.4	–
